Test results from PMC7690861, “Topical Administration of Cannabidiol: Influence of Vehicle-Related Aspects on Skin Permeation Process” (Pharmaceuticals, 2020).
Converted amounts (≈) assume the structure as drawn. Like-named read-outs stand apart in the source and are kept apart here. Marks after values point to notes of the source that are not given here.

Experiments:
[1] = Preliminary chemical stability of CBD in tested formulations (total impurities); type: physicochemical; conditions: over the preparation process and the permeation experiments; preliminary data
Excerpt: Evidence in the literature highlighted that CBD was quite unstable in a solution for a long period. Even if an in-depth investigation of the chemical stability of CBD loaded in the tested formulation has not been performed yet, preliminary data highlighted that CBD was stable over both the preparation process and the permeation experiments (total impurities < 2% of CBD assay). […] Further studies are needed to determine the long-term stability of the tested formulations.
HPLC analysis was run using an HP 1100 ChemStation system (Agilent Technologies Inc, USA), acetonitrile/phosphate buffer pH 3.0 (75/25, v/v) was used as mobile phase at a flow rate of 1.5 mL/min, injection volume was set at 20 μL. The UV detector was set at a wavelength of 215 nm. A reverse-phase C8 column (InertClone™, 5 μm, 150 × 4.6 mm; Phenomenex Inc, Torrance, USA) was used. The retention time of the CBD was 4.0 min. Two calibration curves were made in the overall range of 0.02–100 μg/mL.

[2] = physchem
[3] = parameters: method as in Burke [29]; conditions: experimental; ref Burke [29]; cited from earlier work
[4] = Fedors method; ref Minghetti et al. [26]; cited from earlier work

C=C(C)[C@@H]1CCC(C)=C[C@H]1c1c(O)cc(CCCCC)cc1O [CBD, Cannabidiol]
Total impurities [1]: < 2 % of CBD assay | solubility at 24 h [2]: 2240 ± 80 µg/mL (≈ 7.12 mM)

CC(O)CO (stereo not shown) [Propylene glycol]
δ (solubility parameter) [3]: 14.80 ^d cal/cm^3

O-acylglucosylceramide
δ (solubility parameter) [4]: 10.03 ^a cal/cm^3
